Source: ChEMBL document CHEMBL1152157, “Total synthesis and biological evaluation of potent analogues of dictyostatin: modification of the C2-C6 dienoate region” (Bioorg Med Chem Lett, 2008)
Calls of active or inactive are those of the source. The rule behind the calls is not given here.

What was measured:
Type in all cases: functional, cell-based
[1] = test system: NCI/ADR-RES; assay: Cytotoxicity against taxol-resistant human NCI/ADR-RES cells after 72 hrs by MTT assay
[2] = test system: DLD-1; assay: Cytotoxicity against taxol-sensitive human DLD1 cells after 72 hrs by MTT assay; conditions: DLD-1, 72 h
[3] = test system: ASPC1; assay: Cytotoxicity against taxol-sensitive human AsPC1 cells after 72 hrs by MTT assay; conditions: ASPC1, 72 h
[4] = test system: PANC-1; assay: Cytotoxicity against taxol-sensitive human PANC1 cells after 72 hrs by MTT assay; conditions: PANC-1, 72 h
[5] = test system: PANC-1; assay: Cell cycle arrest in human PANC1 cells by accumulation in G2/M phase
[6] = test system: PANC-1; assay: Induction of microtubule stabilization in human PANC1 cells assessed as formation of dense intracellular microtubule bundles

SMILES: C=C/C=C\[C@H](C)[C@H](OC(N)=O)[C@@H](C)[C@H](O)[C@@H](C)C/C(C)=C\[C@H](C)[C@@H](O)[C@@H](C)/C=C\[C@@H](O)C[C@@H]1OC(=O)[C@H](C)[C@@H](O)[C@H]1C [DISERMOLIDE]
- IC50 [1]: 160 nM

SMILES: CC(=O)O[C@H]1C(=O)[C@@]2(C)[C@H]([C@H](OC(=O)c3ccccc3)[C@]3(O)C[C@H](OC(=O)[C@H](O)[C@@H](NC(=O)c4ccccc4)c4ccccc4)C(C)=C1C3(C)C)[C@]1(OC(C)=O)CO[C@@H]1C[C@@H]2O [PACLITAXEL]
- IC50 [2]: 22 nM
- IC50 [3]: 89 nM
- IC50 [1]: 1300 nM
- IC50 [4]: 9.9 nM

SMILES: C=C/C=C\[C@H](C)[C@@H]1OC(=O)/C=C\C=C\[C@@H](C)[C@@H](O)C[C@H](O)/C=C\[C@H](C)[C@H](O)[C@@H](C)C[C@@H](C)CC[C@@H](O)[C@@H]1C [DICTYOSTATIN]
- IC50 [2]: 2.2 nM
- IC50 [3]: 6.2 nM
- IC50 [1]: 6.6 nM
- IC50 [4]: 4.2 nM

SMILES: C=C/C=C\[C@H](C)[C@@H]1OC(=O)CC/C=C/[C@@H](C)[C@@H](O)C[C@H](O)/C=C\[C@H](C)[C@H](O)[C@@H](C)C[C@@H](C)CC[C@@H](O)[C@@H]1C
- IC50 [2]: 22 nM
- IC50 [3]: 94 nM
- Activity [5]: Active
- Activity [6]: Active
- IC50 [1]: 66 nM
- IC50 [4]: 42 nM

SMILES: C=C/C=C\[C@H](C)[C@@H]1OC(=O)CCCC[C@@H](C)[C@@H](O)C[C@H](O)/C=C\[C@H](C)[C@H](O)[C@@H](C)C[C@@H](C)CC[C@@H](O)[C@@H]1C
- IC50 [2]: 55 nM
- IC50 [3]: 120 nM
- Activity [5]: Active
- Activity [6]: Active
- IC50 [1]: 130 nM
- IC50 [4]: 64 nM

SMILES: C=C/C=C\[C@H](C)[C@@H]1OC(=O)/C=C\C=C\C[C@@H](O)C[C@H](O)/C=C\[C@H](C)[C@H](O)[C@@H](C)C[C@@H](C)CC[C@@H](O)[C@@H]1C
- IC50 [2]: 8.1 nM
- IC50 [3]: 56 nM
- Activity [5]: Active
- Activity [6]: Active
- IC50 [1]: 43 nM
- IC50 [4]: 17 nM
